Counter-ions that a name gives are not always drawn.

The target in this assay is T1, G9a (Homo sapiens, UniProt Q96KQ7).
T1 sequence (Q96KQ7 1-1210): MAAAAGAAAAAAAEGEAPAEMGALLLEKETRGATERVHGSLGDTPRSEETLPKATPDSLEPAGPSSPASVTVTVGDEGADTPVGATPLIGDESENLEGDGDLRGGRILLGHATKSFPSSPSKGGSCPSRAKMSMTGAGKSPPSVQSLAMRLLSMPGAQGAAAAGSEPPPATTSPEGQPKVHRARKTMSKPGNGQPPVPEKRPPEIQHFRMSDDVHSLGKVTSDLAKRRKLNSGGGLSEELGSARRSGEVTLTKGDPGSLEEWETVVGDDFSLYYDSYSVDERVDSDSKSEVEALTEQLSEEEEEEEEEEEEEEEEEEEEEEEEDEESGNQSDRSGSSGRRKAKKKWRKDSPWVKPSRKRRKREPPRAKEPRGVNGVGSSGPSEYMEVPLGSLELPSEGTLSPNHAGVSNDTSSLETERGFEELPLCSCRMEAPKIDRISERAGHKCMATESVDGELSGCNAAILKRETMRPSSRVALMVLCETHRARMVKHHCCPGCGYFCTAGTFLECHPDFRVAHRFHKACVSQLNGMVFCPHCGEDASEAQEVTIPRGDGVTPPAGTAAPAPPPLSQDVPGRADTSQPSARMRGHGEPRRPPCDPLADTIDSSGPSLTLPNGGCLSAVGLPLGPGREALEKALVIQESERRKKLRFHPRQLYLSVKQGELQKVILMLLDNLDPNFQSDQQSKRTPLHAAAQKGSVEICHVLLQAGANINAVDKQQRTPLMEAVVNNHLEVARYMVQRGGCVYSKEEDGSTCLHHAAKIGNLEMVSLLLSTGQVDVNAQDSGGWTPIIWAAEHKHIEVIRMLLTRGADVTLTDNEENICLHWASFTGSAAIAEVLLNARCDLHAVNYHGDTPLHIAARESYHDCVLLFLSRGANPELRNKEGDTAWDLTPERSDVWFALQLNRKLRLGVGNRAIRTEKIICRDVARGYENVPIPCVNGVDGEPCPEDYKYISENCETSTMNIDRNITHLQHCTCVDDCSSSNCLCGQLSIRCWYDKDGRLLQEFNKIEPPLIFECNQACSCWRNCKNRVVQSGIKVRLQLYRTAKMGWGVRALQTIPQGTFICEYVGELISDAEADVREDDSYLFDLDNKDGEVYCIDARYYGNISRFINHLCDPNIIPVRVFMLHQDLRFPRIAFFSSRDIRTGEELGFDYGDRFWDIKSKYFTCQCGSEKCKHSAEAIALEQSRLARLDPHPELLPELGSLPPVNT
Briefly: G9a AlphaLISA enzymatic activity assay. The format is biochemical. As to conditions: 0.15 nM G9a, 15 uM S-adenosyl-methionine, 100 nM biotinylated histone 3 peptide (1-21), 1 hour at room temperature; read-out: G9a in (uM) (IC50, concentration that produced 50% inhibition). In outline:
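Human G9a (0.15 nM) methylated 100 nM biotinylated histone H3(1-21) peptide with 15 uM SAM in Tris-HCl pH9 buffer with NaCl, Tween-20 and DTT, 1 h at room temperature. H3K9me2 was detected by AlphaLISA acceptor/streptavidin donor beads (20 ug/mL each); IC50 from percent inhibition across compound dilutions.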
Regarding `COc1cc2c3c(c(NC4CCN(C)CC4)nc2cc1OCCCN1CCCC1)CCC3` [Example 41, N-{8-methoxy-7-[3-(pyrrolidin-1-yl)propoxy]-1H,2H,3H-cyclopenta[c]quinolin-4-yl}-1-methylpiperidin-4-amine formate], the IC50 came to 0.5 µM.

With `COc1cc2nc(NC3CC3)c3c(c2cc1OCCCN1CCCC1)COC3` [Example 47, N-cyclopropyl-7-methoxy-8-[3-(pyrrolidin-1-yl)propoxy]-1H,3H-furo[3,4-c]quinolin-4-amine], the IC50 worked out at 3.1 µM.

`CNc1nc2cc(OCCCN3CCCC3)c(OC)cc2c2c1CC(C)(C)C2` [Example 53, 8-methoxy-N,2,2-trimethyl-7-[3-(pyrrolidin-1-yl)propoxy]-1H,2H,3H-cyclopenta[c]quinolin-4-amine formate]: the IC50 was determined as 0.043 µM.

As to `COc1cc2c3c(c(N[C@H]4CCOC4)nc2cc1OCCCN1CCCC1)CCC3` [Example 18, 8-methoxy-N-[(3S)-oxolan-3-yl]-7-[3-(pyrrolidin-1-yl)propoxy]-1H,2H,3H-cyclopenta[c]quinolin-4-amine formate], the IC50 turned out to be 0.11 µM.

Regarding `COc1cc2c3c(c(NC4CCN(C(C)C)CC4)nc2cc1OCCCN1CCCC1)CCCC3` [Example 39, 2-methoxy-N-[1-(propan-2-yl)piperidin-4-yl]-3-[3-(pyrrolidin-1-yl)propoxy]-7,8,9,10-tetrahydrophenanthridin-6-amine trifluoroacetate], the IC50 is 3 µM.

Turning to `COc1cc2c3c(cnc2cc1OCCCN1CCCC1)CC(C)(C)N3` [Example 35, 1-[3-({8-methoxy-2,2-dimethyl-1H,2H,3H-pyrrolo[3,2-c]quinolin-7-yl}oxy)propyl]pyrrolidine formate], the IC50 was found to be 0.012 µM.

`CNc1nc2cc(OCCCN3CCCC3)c(OC)cc2c2c1CC(O)CC2` (stereo not shown) [Example 61, 2-methoxy-6-(methylamino)-3-[3-(pyrrolidin-1-yl)propoxy]-7,8,9,10-tetrahydrophenanthridin-8-ol formate]: the IC50 was 0.14 µM.

With `COc1cc2c3c(c(NC(C)C)nc2cc1OCCCN1CCCC1)COCC3` [Example 50, 9-methoxy-N-(propan-2-yl)-8-[3-(pyrrolidin-1-yl)propoxy]-1H,2H,4H-pyrano[3,4-c]quinolin-5-amine formate], the IC50 is 0.24 µM.

Turning to `COc1cc2c3c(c(C(C)C)nc2cc1OCCCN1CCCC1)CCC(C)(C)N3` [Example 77, 1-(3-{[9-methoxy-2,2-dimethyl-5-(propan-2-yl)-1H,2H,3H,4H-benzo[h]1,6-naphthyridin-8-yl]oxy}propyl)pyrrolidine formate], the IC50 is 0.007 µM.

As for `COc1cc2c3c(c(C4CCCC4)nc2cc1OCCCN1CCCC1)CCC3` [Example 109, 1-[3-({4-cyclopentyl-8-methoxy-1H,2H,3H-cyclopenta[c]quinolin-7-yl}oxy)propyl]pyrrolidine formate], the IC50 came out at 0.5 µM.

As to `COc1cc2c3c(c(NCC(F)(F)F)nc2cc1OCCCN1CCCC1)CCCC3` [Example 67, 2-methoxy-3-[3-(pyrrolidin-1-yl)propoxy]-N-(2,2,2-trifluoroethyl)-7,8,9,10-tetrahydrophenanthridin-6-amine formate], the IC50 turned out to be 2 µM.

Consider `CNc1nc2cc(OCCCN3CCCC3)c(OC)cc2c2c1CCCN2` [Example 26, 9-methoxy-N-methyl-8-[3-(pyrrolidin-1-yl)propoxy]-1H,2H,3H,4H-benzo[h]1,6-naphthyridin-5-amine formate], for which the IC50 was 0.004 µM.

Turning to `COc1cc2c3c(c(NC(C)C)nc2cc1OCCCN1CCCC1)CCCCN3` [Example 34, 10-methoxy-N-(propan-2-yl)-9-[3-(pyrrolidin-1-yl)propoxy]-1H,2H,3H,4H,5H-azepino[3,2-c]quinolin-6-amine formate], the IC50 is 0.01 µM.

Consider `COc1cc2c3c(c(N(C)C(C)C)nc2cc1OCCCN1CCCC1)CCC3` [Example 9, 8-methoxy-N-methyl-N-(propan-2-yl)-7-[3-(pyrrolidin-1-yl)propoxy]-1H,2H,3H-cyclopenta[c]quinolin-4-amine trifluoroacetate], for which the IC50 worked out at 0.69 µM.

As to `COc1cc2c3c(c(N4CCCC4)nc2cc1OCCCN1CCCC1)CCC3` [Example 10, 1-{8-methoxy-7-[3-(pyrrolidin-1-yl)propoxy]-1H,2H,3H-cyclopenta[c]quinolin-4-yl}pyrrolidine formate], the IC50 worked out at 0.19 µM.

Take `COc1cc2c3c(c(NCC4CCC4)nc2cc1OCCCN1CCCC1)CC(C)(C)C3` [Example 96, N-(cyclobutylmethyl)-8-methoxy-2,2-dimethyl-7-(3-(pyrrolidin-1-yl)propoxy)-2,3-dihydro-1H-cyclopenta[c]quinolin-4-amine formate]: the IC50 is 0.1 µM.

For `CNc1nc2cc(OCCCN3CCCC3)c(OC)cc2c2c1CCCC2` [Example 2, 2-methoxy-N-methyl-3-[3-(pyrrolidin-1-yl)propoxy]-7,8,9,10-tetrahydrophenanthridin-6-amine formate], the IC50 was found to be 0.029 µM.

Consider `CCCCNc1nc2cc(OCCCN3CCCC3)c(OC)cc2c2c1CC(C)(C)C2` [Example 91, N-butyl-8-methoxy-2,2-dimethyl-7-[3-(pyrrolidin-1-yl)propoxy]-1H,2H,3H-cyclopenta[c]quinolin-4-amine formate], for which the IC50 was 0.007 µM.

As for `COc1cc2c3c(c(N[C@@H](C)C4CC4)nc2cc1OCCCN1CCCC1)CCC3` [Example 88, N-[(1S)-1-cyclopropylethyl]-8-methoxy-7-[3-(pyrrolidin-1-yl)propoxy]-1H,2H,3H-cyclopenta[c]quinolin-4-amine formate], the IC50 was found to be 0.003 µM.

Turning to `COc1cc2c3c(c(NCC(C)C)nc2cc1OCCCN1CCCC1)CCC3` [Example 103, 8-methoxy-N-(2-methylpropyl)-7-[3-(pyrrolidin-1-yl)propoxy]-1H,2H,3H-cyclopenta[c]quinolin-4-amine trifluoroacetate], the IC50 was 0.027 µM.

`COc1cc2c3c(c(NC(C)C)nc2cc1OCC1CCN(C)C1)CCCC3` (stereo not shown) [Example 51, 2-methoxy-3-[(1-methylpyrrolidin-3-yl)methoxy]-N-(propan-2-yl)-7,8,9,10-tetrahydrophenanthridin-6-amine formate]: the IC50 came out at 0.88 µM.

As for `COc1cc2c3c(c(NCCC(F)(F)F)nc2cc1OCCCN1CCCC1)CCC3` [Example 66, 8-methoxy-7-[3-(pyrrolidin-1-yl)propoxy]-N-(3,3,3-trifluoropropyl)-1H,2H,3H-cyclopenta[c]quinolin-4-amine], the IC50 worked out at 0.22 µM.

`COc1cc2c3c(c(NC(C)C)nc2cc1OCCCN1CCCC1)COC3` [Example 46, 8-methoxy-N-(propan-2-yl)-7-[3-(pyrrolidin-1-yl)propoxy]-1H,3H-furo[3,4-c]quinolin-4-amine]: the IC50 was 0.26 µM.

Turning to `COc1cc2c3c(c(N)nc2cc1OCCCN1CCCC1)CC(C)(C)C3` [Example 118, 8-methoxy-2,2-dimethyl-7-[3-(pyrrolidin-1-yl)propoxy]-1H,2H,3H-cyclopenta[c]quinolin-4-amine formate], the IC50 is 0.018 µM.

Consider `COc1cc2c(cc1OCCCN1CCCC1)nc(O)n1nccc21` [Example 56, 9-methoxy-8-[3-(pyrrolidin-1-yl)propoxy]pyrazolo[1,5-c]quinazolin-5-ol formate], for which the IC50 was 0.46 µM.

Take `COc1cc2c3c(c(C)nc2cc1OCCCN1CCCC1)CCC(C)(C)N3` [Example 78, 1-[3-({9-methoxy-2,2,5-trimethyl-1H,2H,3H,4H-benzo[h]1,6-naphthyridin-8-yl}oxy)propyl]pyrrolidine]: the IC50 worked out at 0.003 µM.

With `Cl.Cl.[2H]C(C)(C)Nc1nc2cc(OCCCN3CCCC3)c(OC)cc2c2c1CCC2` [Example 102, 8-methoxy-N-[(2-^2H)propan-2-yl]-7-[3-(pyrrolidin-1-yl)propoxy]-1H,2H,3H-cyclopenta[c]quinolin-4-amine hydrochloride], the IC50 was determined as 0.013 µM.

Regarding `CCNc1nc2cc(OCCCN3CCCC3)c(OC)cc2c2c1CCC2` [Example 106, N-ethyl-8-methoxy-7-[3-(pyrrolidin-1-yl)propoxy]-1H,2H,3H-cyclopenta[c]quinolin-4-amine trifluoroacetate], the IC50 amounted to 0.013 µM.
